Source: ChEMBL document CHEMBL1153054, “Functionalized 3-amino-imidazo[1,2-a]pyridines: a novel class of drug-like Mycobacterium tuberculosis glutamine synthetase inhibitors” (Bioorg Med Chem Lett, 2009)

Assay: Inhibition of Mycobacterium tuberculosis glutamine synthetase
Conditions: not given

Structure (SMILES)	IC50
Oc1ccc(-c2nc3ccc(Br)cn3c2NC2CCCC2)cc1	ND(Insoluble)

Same assay, conditions: read-out: IC50

Structure (SMILES)	IC50 [µM]
Oc1ccccc1-c1nc2ccc(Br)cn2c1NC1CCCC1	> 50
O=C(O)c1cccc(-c2nc3ccc(Br)cn3c2NC2CCCC2)c1	0.38
COc1ccc(-c2nc3ccc(C(F)(F)F)cn3c2NC2CCCC2)cc1O	> 50
COc1ccc(-c2nc3ccc(Oc4ccccc4)cn3c2NC2CCCC2)cc1O	> 50
Brc1ccc2ncc(NC3CCCC3)n2c1	> 50
COc1cccc(-c2nc3ccc(Br)cn3c2NC2CCCC2)c1OC	> 50
O=[N+]([O-])c1ccc(-c2nc3ccc(Br)cn3c2NC2CCCC2)cc1O	> 50
COc1ccc(-c2nc3ccc(Cl)cn3c2NC2CCCC2)cc1O	11.2
COc1ccc(-c2nc3ccc(C)cn3c2NC2CCCC2)cc1O	> 50
OCc1cccc(-c2nc3ccc(Br)cn3c2NC2CCCC2)c1	13.2
COc1ccc(-c2nc3ccc(F)cn3c2NC2CCCC2)cc1O	> 50
COc1ccc(-c2nc3c(C)cc(Br)cn3c2NC2CCCC2)cc1O	12.7
COc1ccc(-c2nc3ccc(Cc4ccccc4)cn3c2NC2CCCC2)cc1O	> 50
COc1ccc(-c2nc3ccc(/C=C/c4ccccc4)cn3c2NC2CCCC2)cc1O	> 50
Oc1cccc(-c2nc3ccc(Br)cn3c2NC2CCCC2)c1Cl	> 50
Oc1cccc(-c2nc3ccc(Br)cn3c2NC2CCCC2)c1	> 50

Structure (SMILES)	IC50 [µM]
COc1ccc(-c2nc3ccc(CCc4ccccc4)cn3c2NC2CCCC2)cc1O	> 50
O=[N+]([O-])c1cccc(-c2nc3ccc(Br)cn3c2NC2CCCC2)c1	> 50
COc1ccc(-c2nc3ccc(-c4ccncc4)cn3c2NC2CCCC2)cc1O	> 50
COc1ccc(-c2nc3c(Br)cccn3c2NC2CCCC2)cc1O	21.3
COc1ccc(-c2nc3c(Br)cc(Br)cn3c2NC2CCCC2)cc1O	> 50
COc1ccc(-c2nc3ccc(Br)cn3c2NC2CCCC2)cc1O	8.8
Nc1cccc(-c2nc3ccc(Br)cn3c2NC2CCCC2)c1	10.1
COc1ccc2nc(-c3ccc(OC)c(O)c3)c(NC3CCCC3)n2c1	31.3
COc1ccc(-c2nc3ccccn3c2NC2CCCC2)cc1O	> 50
Brc1ccc2nc(-c3ccccc3)c(NC3CCCC3)n2c1	> 50
COc1ccc(-c2nc3ccc(I)cn3c2NC2CCCC2)cc1O	4.8
COc1cccc(-c2nc3ccc(Br)cn3c2NC2CCCC2)c1	> 50
COc1cc(-c2nc3ccc(Br)cn3c2NC2CCCC2)ccc1O	> 50
COc1ccc(-c2nc3ccc(-c4ccccc4)cn3c2NC2CCCC2)cc1O	> 50
COc1ccc(-c2nc3ccc(C#N)cn3c2NC2CCCC2)cc1O	> 50
COc1ccc(-c2nc3cccc(Br)n3c2NC2CCCC2)cc1O	> 50
